Test results taken from patent publication US10934298B2, “Substituted pyrazolo[1,5-a]pyrimidines for the treatment of medical disorders” (BIAL—BioTech Investments, Inc., priority 2016, dated 2021).

Molecular target: T1, glucocerebrosidase (Gcase) (Homo sapiens, UniProt P04062)
T1 construct: micellar solution containing 10 nM GCase and 100 nM saposin C
T1 sequence (P04062 40-536): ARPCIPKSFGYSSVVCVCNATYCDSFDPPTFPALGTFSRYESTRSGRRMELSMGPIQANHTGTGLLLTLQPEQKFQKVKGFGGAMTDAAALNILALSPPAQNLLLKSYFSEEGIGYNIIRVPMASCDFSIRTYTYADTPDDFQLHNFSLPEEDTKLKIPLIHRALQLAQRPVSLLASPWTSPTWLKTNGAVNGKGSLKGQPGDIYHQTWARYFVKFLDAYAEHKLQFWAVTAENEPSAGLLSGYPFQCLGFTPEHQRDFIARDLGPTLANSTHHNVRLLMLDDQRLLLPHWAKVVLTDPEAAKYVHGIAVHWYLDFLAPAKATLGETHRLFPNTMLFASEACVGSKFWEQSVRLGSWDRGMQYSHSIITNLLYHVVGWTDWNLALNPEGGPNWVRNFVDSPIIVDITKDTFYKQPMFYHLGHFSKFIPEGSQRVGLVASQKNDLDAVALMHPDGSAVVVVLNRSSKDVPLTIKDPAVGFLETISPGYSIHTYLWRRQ
Test: Glucocerebrosidase (Gcase) activation assay with 4-methylumbelliferyl-beta-D-glucopyranoside substrate, saposin C and phosphatidylserine/triton micelles, fluorescence readout
Assay type: biochemical
Description: The ability of exemplary compounds to activate glucocerebrosidase (Gcase) was measured.
A 484 μL aliquot of a 1.0 mg/mL solution of phosphatidylserine (PS) (Sigma P7769) in chloroform was evaporated under a stream of nitrogen for 1 hour. The lipid film was dissolved over 4 minutes of vigorous vortexing in 40 mL of 176 mM K2HPO4/50 mM citric acid (pH 4.7) containing 7.5 μL of triton X-100, resulting in a mixed micellar preparation with a composition of 0.32 mM triton and 0.37 mol % PS. 4-Methylumbelliferyl-beta-D-glucopyranoside (ACROS-337025000) was dissolved in the micellar solution to a final concentration of 2 mM for use as the reaction substrate.
Test compounds were diluted to the desired concentrations with dimethylsulfoxide (DMSO) from 10 mM stocks, and 0.41 μL of the DMSO compound mixture was added to 100 μL of micellar solution containing 10 nM GCase and 100 nM saposin C (Enzo ALX-201-262-C050). Pre-incubation was allowed to occur for 30 minutes at room temperature, after which the reaction was initiated by combining 25 μL of substrate solution with 25 μL of compound/GCase/saposin mixture. The reaction proceeded for 15 minutes at room temperature and was stopped by adding 150 μL of 1M glycine, pH 12.5. The endpoint of the reaction was monitored by measuring fluorescence intensity (excitation: 365 nm; emission: 440 nm) on a SpectraMax i3 instrument (Molecular Devices). Test compounds were screened at 1.0 and 0.1 μM final concentration, and subsequent 8-point dose response curves were obtained using 3-fold dilutions from a maximum final concentration of 5 μM.

## Cc1cc(C(F)(F)F)nc2c(C(=O)NC(C)(C)C3CC3)cnn12 [III-68]
0.1 μM test compound, Table 3A
  Percent Gcase Activation, 0.1 μM Test Compound: * (less than 10% Gcase activation)
1 μM test compound, Table 3A
  Percent Gcase Activation, 1 μM Test Compound: + (less than 30% Gcase activation)

## C#CC(C)(C)NC(=O)c1cnn2c(C)cc(-c3cccc(OC)c3)nc12 [III-69]
0.1 μM test compound, Table 3A
  Percent Gcase Activation, 0.1 μM Test Compound: *** (greater than 20% Gcase activation)
1 μM test compound, Table 3A
  Percent Gcase Activation, 1 μM Test Compound: +++ (Gcase activation greater than 60%)

## Cc1cc(-c2cccc(C#N)c2)nc2c(C(=O)N[C@@H](C)C3CC3)cnn12 [III-70]
0.1 μM test compound, Table 3A
  Percent Gcase Activation, 0.1 μM Test Compound: *** (greater than 20% Gcase activation)
1 μM test compound, Table 3A
  Percent Gcase Activation, 1 μM Test Compound: +++ (Gcase activation greater than 60%)

## Cc1cc(-c2cccc(C#N)c2)nc2c(C(=O)NC(C)(C)C3CC3)cnn12 [III-71]
0.1 μM test compound, Table 3A
  Percent Gcase Activation, 0.1 μM Test Compound: *** (greater than 20% Gcase activation)
1 μM test compound, Table 3A
  Percent Gcase Activation, 1 μM Test Compound: +++ (Gcase activation greater than 60%)

## Cc1cc(-c2cccc(C#N)c2)nc2c(C(=O)NC(C3CC3)C(F)(F)F)cnn12 (centres unmarked) [III-72]
0.1 μM test compound, Table 3A
  Percent Gcase Activation, 0.1 μM Test Compound: *** (greater than 20% Gcase activation)
1 μM test compound, Table 3A
  Percent Gcase Activation, 1 μM Test Compound: +++ (Gcase activation greater than 60%)

## Cc1cc(-c2cccc(C(N)=O)c2)nc2c(C(=O)NC(C3CC3)C(F)(F)F)cnn12 (centres unmarked) [III-73]
0.1 μM test compound, Table 3A
  Percent Gcase Activation, 0.1 μM Test Compound: *** (greater than 20% Gcase activation)
1 μM test compound, Table 3A
  Percent Gcase Activation, 1 μM Test Compound: +++ (Gcase activation greater than 60%)

## COCc1cc(-c2cccc(F)c2)nc2c(C(=O)NC(C)(C)C3CC3)cnn12 [III-74]
0.1 μM test compound, Table 3A
  Percent Gcase Activation, 0.1 μM Test Compound: ** (Gcase activation in the range of 10% up to 20%)
1 μM test compound, Table 3A
  Percent Gcase Activation, 1 μM Test Compound: +++ (Gcase activation greater than 60%)

## C#CC(C)(C)NC(=O)c1cnn2c(C)cc(-c3cccc(F)c3)nc12 [III-75]
0.1 μM test compound, Table 3A
  Percent Gcase Activation, 0.1 μM Test Compound: *** (greater than 20% Gcase activation)
1 μM test compound, Table 3A
  Percent Gcase Activation, 1 μM Test Compound: +++ (Gcase activation greater than 60%)

## CCOc1cccc(-c2cc(C)n3ncc(C(=O)NC(C)C(F)(F)F)c3n2)c1 (centres unmarked) [III-76]
0.1 μM test compound, Table 3A
  Percent Gcase Activation, 0.1 μM Test Compound: *** (greater than 20% Gcase activation)
1 μM test compound, Table 3A
  Percent Gcase Activation, 1 μM Test Compound: +++ (Gcase activation greater than 60%)

## Cc1cc(-c2cccc(OC3CC3)c2)nc2c(C(=O)NC(C)C(F)(F)F)cnn12 (centres unmarked) [III-77]
0.1 μM test compound, Table 3A
  Percent Gcase Activation, 0.1 μM Test Compound: *** (greater than 20% Gcase activation)
1 μM test compound, Table 3A
  Percent Gcase Activation, 1 μM Test Compound: +++ (Gcase activation greater than 60%)

## Cc1cc(NC2CC2)nc2c(C(=O)NC(C3CC3)C3CC3)cnn12 [III-78]
0.1 μM test compound, Table 3A
  Percent Gcase Activation, 0.1 μM Test Compound: *** (greater than 20% Gcase activation)
1 μM test compound, Table 3A
  Percent Gcase Activation, 1 μM Test Compound: +++ (Gcase activation greater than 60%)

## COCc1cc(-c2cccc(OC)c2)nc2c(C(=O)NC(C)(C)C3CC3)cnn12 [III-79]
0.1 μM test compound, Table 3A
  Percent Gcase Activation, 0.1 μM Test Compound: *** (greater than 20% Gcase activation)
1 μM test compound, Table 3A
  Percent Gcase Activation, 1 μM Test Compound: +++ (Gcase activation greater than 60%)

## Cc1cc(-c2cccc(F)c2)nc2c(C(=O)NC(C)(C)C(F)(F)F)cnn12 [III-80]
0.1 μM test compound, Table 3A
  Percent Gcase Activation, 0.1 μM Test Compound: ** (Gcase activation in the range of 10% up to 20%)
1 μM test compound, Table 3A
  Percent Gcase Activation, 1 μM Test Compound: +++ (Gcase activation greater than 60%)

## C#CC(C)(C)NC(=O)c1cnn2c(C)cc(-c3cccc(Cl)c3)nc12 [III-81]
0.1 μM test compound, Table 3A
  Percent Gcase Activation, 0.1 μM Test Compound: *** (greater than 20% Gcase activation)
1 μM test compound, Table 3A
  Percent Gcase Activation, 1 μM Test Compound: +++ (Gcase activation greater than 60%)

## C#CC(C)(C)NC(=O)c1cnn2c(C)cc(-c3cccc(OC4CC4)c3)nc12 [III-82]
0.1 μM test compound, Table 3A
  Percent Gcase Activation, 0.1 μM Test Compound: *** (greater than 20% Gcase activation)
1 μM test compound, Table 3A
  Percent Gcase Activation, 1 μM Test Compound: +++ (Gcase activation greater than 60%)

## Cc1cc(-c2ccc3ocnc3c2)nc2c(C(=O)NC(C3CC3)C(F)(F)F)cnn12 (centres unmarked) [III-83]
0.1 μM test compound, Table 3A
  Percent Gcase Activation, 0.1 μM Test Compound: *** (greater than 20% Gcase activation)
1 μM test compound, Table 3A
  Percent Gcase Activation, 1 μM Test Compound: +++ (Gcase activation greater than 60%)

## Cc1cc(-c2ccc(F)nc2)nc2c(C(=O)NC(C3CC3)C(F)(F)F)cnn12 (centres unmarked) [III-84]
0.1 μM test compound, Table 3A
  Percent Gcase Activation, 0.1 μM Test Compound: *** (greater than 20% Gcase activation)
1 μM test compound, Table 3A
  Percent Gcase Activation, 1 μM Test Compound: +++ (Gcase activation greater than 60%)

## Cc1cc(-c2cccnc2F)nc2c(C(=O)NC(C3CC3)C(F)(F)F)cnn12 (centres unmarked) [III-85]
0.1 μM test compound, Table 3A
  Percent Gcase Activation, 0.1 μM Test Compound: *** (greater than 20% Gcase activation)
1 μM test compound, Table 3A
  Percent Gcase Activation, 1 μM Test Compound: +++ (Gcase activation greater than 60%)

## Cc1cc(-c2ccc(F)cc2)nc2c(C(=O)N[C@H](C)C3CC3)cnn12 [III-86]
Test compound at 0.1 μM
  Percent Gcase Activation, 0.1 μM Test Compound: ** (Gcase activation in the range of 10% up to 20%)
Test compound at 1.0 μM
  Percent Gcase Activation, 1 μM Test Compound: +++ (Gcase activation greater than 60%)

## Cc1cc(-c2cccnc2)nc2c(C(=O)N[C@H](C)C3CC3)cnn12 [III-87]
Test compound at 0.1 μM
  Percent Gcase Activation, 0.1 μM Test Compound: * (less than 10% Gcase activation)
Test compound at 1.0 μM
  Percent Gcase Activation, 1 μM Test Compound: + (less than 30% Gcase activation)

## Cc1cc(-c2cccnc2)nc2c(C(=O)N[C@H](C3CC3)C(F)(F)F)cnn12 [III-88]
Test compound at 0.1 μM
  Percent Gcase Activation, 0.1 μM Test Compound: *** (greater than 20% Gcase activation)
Test compound at 1.0 μM
  Percent Gcase Activation, 1 μM Test Compound: +++ (Gcase activation greater than 60%)

## Cc1cc(-c2cccnc2)nc2c(C(=O)N[C@@H](C3CC3)C(F)(F)F)cnn12 [III-89]
Test compound at 0.1 μM
  Percent Gcase Activation, 0.1 μM Test Compound: ** (Gcase activation in the range of 10% up to 20%)
Test compound at 1.0 μM
  Percent Gcase Activation, 1 μM Test Compound: +++ (Gcase activation greater than 60%)

## COc1cccc(-c2cc(C)n3ncc(C(=O)N[C@H](C)C(F)(F)F)c3n2)c1 [III-90]
Test compound at 0.1 μM
  Percent Gcase Activation, 0.1 μM Test Compound: *** (greater than 20% Gcase activation)
Test compound at 1.0 μM
  Percent Gcase Activation, 1 μM Test Compound: +++ (Gcase activation greater than 60%)

## COc1cccc(-c2cc(C)n3ncc(C(=O)N[C@@H](C)C(F)(F)F)c3n2)c1 [III-91]
Test compound at 0.1 μM
  Percent Gcase Activation, 0.1 μM Test Compound: *** (greater than 20% Gcase activation)
Test compound at 1.0 μM
  Percent Gcase Activation, 1 μM Test Compound: +++ (Gcase activation greater than 60%)

## Cc1cc(-c2cccc(F)c2)nc2c(C(=O)N[C@H](C)C3CC3)cnn12 [III-92]
Test compound at 0.1 μM
  Percent Gcase Activation, 0.1 μM Test Compound: *** (greater than 20% Gcase activation)
Test compound at 1.0 μM
  Percent Gcase Activation, 1 μM Test Compound: +++ (Gcase activation greater than 60%)

## Cc1cc(-c2cccc(C#N)c2)nc2c(C(=O)N[C@H](C)C3CC3)cnn12 [III-93]
Test compound at 0.1 μM
  Percent Gcase Activation, 0.1 μM Test Compound: ** (Gcase activation in the range of 10% up to 20%)
Test compound at 1.0 μM
  Percent Gcase Activation, 1 μM Test Compound: +++ (Gcase activation greater than 60%)

## Cc1cc(N2CCCC(F)(F)C2)nc2c(C(=O)N[C@H](C3CC3)C(F)(F)F)cnn12 [III-94]
Test compound at 0.1 μM
  Percent Gcase Activation, 0.1 μM Test Compound: *** (greater than 20% Gcase activation)
Test compound at 1.0 μM
  Percent Gcase Activation, 1 μM Test Compound: +++ (Gcase activation greater than 60%)

## Cc1cc(N2CCCC(F)(F)C2)nc2c(C(=O)N[C@@H](C3CC3)C(F)(F)F)cnn12 [III-95]
Test compound at 0.1 μM
  Percent Gcase Activation, 0.1 μM Test Compound: *** (greater than 20% Gcase activation)
Test compound at 1.0 μM
  Percent Gcase Activation, 1 μM Test Compound: +++ (Gcase activation greater than 60%)

## C#CC(NC(=O)c1cnn2c(C)cc(-c3cccc(OC)c3)nc12)C(F)(F)F (centres unmarked) [III-96]
Test compound at 0.1 μM
  Percent Gcase Activation, 0.1 μM Test Compound: *** (greater than 20% Gcase activation)
Test compound at 1.0 μM
  Percent Gcase Activation, 1 μM Test Compound: +++ (Gcase activation greater than 60%)

## COc1ccc(F)c(-c2cc(C)n3ncc(C(=O)N[C@H](C)C(F)(F)F)c3n2)c1 [III-97]
Test compound at 0.1 μM
  Percent Gcase Activation, 0.1 μM Test Compound: ** (Gcase activation in the range of 10% up to 20%)
Test compound at 1.0 μM
  Percent Gcase Activation, 1 μM Test Compound: +++ (Gcase activation greater than 60%)

## COc1ccc(F)c(-c2cc(C)n3ncc(C(=O)N[C@@H](C)C(F)(F)F)c3n2)c1 [III-98]
Test compound at 0.1 μM
  Percent Gcase Activation, 0.1 μM Test Compound: *** (greater than 20% Gcase activation)
Test compound at 1.0 μM
  Percent Gcase Activation, 1 μM Test Compound: +++ (Gcase activation greater than 60%)
